Measurements reported in patent US11542247B2, “Bi-heteroaryl substitute 1,4-benzodiazepines and uses thereof for the treatment of cancer” (Janssen Pharmaceutica NV, priority 2015, dated 2023).

How the values were obtained:
Assay in all cases: Enzyme binding assay (KINOMEscan)
Details in all cases: DiscoveRx, pKd = -log Kd (M)
FGFR4 = FGFR4 (Homo sapiens (Human), UniProt P22455)
Procedure: (§1) Enzyme Binding Assays (KINOMEscan®)
(§2) Kinase enzyme binding affinities of compounds disclosed herein were determined using the KINOMEscan® technology performed by DiscoveRx Corporation, San Diego, Calif., USA (www.kinomescan.com). Table A2 reports the obtained pKd values, with Kd (M) being the inhibitor binding constant value and with pKd being −log Kd: […]

VEGFR2 = VEGFR2 (Homo sapiens (Human), UniProt P35968)
Procedure: as §1, §2

FGFR2 = FGFR2 (Homo sapiens (Human), UniProt P21802)
Procedure: as §1, §2

FGFR3 = FGFR3 (Homo sapiens (Human), UniProt P22607)
Procedure: as §1, §2

FGFR1 = FGFR1 (Homo sapiens (Human), UniProt P11362)
Procedure: as §1, §2

Chain of FGFR3 (P22607 23-806): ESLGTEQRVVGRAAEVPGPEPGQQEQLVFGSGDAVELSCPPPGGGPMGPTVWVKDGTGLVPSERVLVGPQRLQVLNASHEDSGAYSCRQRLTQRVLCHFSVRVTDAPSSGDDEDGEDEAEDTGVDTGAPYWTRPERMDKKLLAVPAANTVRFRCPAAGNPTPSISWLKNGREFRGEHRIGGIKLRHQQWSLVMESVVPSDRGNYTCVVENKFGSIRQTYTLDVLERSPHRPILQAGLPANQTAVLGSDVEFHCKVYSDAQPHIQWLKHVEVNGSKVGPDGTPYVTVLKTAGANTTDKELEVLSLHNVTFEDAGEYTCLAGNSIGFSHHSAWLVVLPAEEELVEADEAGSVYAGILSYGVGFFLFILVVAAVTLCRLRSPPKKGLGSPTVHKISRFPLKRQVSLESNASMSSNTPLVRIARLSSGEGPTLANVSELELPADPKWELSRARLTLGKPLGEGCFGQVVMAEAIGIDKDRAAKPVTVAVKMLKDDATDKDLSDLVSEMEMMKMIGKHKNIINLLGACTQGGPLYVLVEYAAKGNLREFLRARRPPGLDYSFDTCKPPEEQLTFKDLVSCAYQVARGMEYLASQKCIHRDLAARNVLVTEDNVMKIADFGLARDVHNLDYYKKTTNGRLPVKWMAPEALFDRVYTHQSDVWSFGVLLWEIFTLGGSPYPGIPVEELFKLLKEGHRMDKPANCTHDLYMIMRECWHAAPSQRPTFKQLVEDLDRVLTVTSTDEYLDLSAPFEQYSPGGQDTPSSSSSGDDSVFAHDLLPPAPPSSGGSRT
Chain of FGFR1 (P11362 22-822): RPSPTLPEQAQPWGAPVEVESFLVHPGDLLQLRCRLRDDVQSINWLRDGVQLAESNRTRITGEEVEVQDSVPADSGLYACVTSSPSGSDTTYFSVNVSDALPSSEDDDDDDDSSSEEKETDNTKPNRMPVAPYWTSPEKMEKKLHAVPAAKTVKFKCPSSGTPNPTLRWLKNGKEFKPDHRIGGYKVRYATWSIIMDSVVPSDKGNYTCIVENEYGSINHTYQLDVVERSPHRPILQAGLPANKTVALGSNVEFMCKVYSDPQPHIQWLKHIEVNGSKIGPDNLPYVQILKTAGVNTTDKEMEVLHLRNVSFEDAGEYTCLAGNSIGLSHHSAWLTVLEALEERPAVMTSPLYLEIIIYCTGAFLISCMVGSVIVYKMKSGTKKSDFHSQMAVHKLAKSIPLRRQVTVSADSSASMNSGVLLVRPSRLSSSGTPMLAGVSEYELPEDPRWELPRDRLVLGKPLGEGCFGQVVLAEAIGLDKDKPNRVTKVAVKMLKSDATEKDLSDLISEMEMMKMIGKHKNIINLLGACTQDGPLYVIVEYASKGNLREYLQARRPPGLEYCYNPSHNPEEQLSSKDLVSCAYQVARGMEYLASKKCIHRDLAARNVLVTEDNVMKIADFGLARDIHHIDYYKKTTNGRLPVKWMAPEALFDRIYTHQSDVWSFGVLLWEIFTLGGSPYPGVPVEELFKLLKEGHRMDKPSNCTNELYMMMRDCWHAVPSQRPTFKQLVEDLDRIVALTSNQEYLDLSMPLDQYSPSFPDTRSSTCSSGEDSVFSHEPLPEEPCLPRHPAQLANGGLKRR
Chain of VEGFR2 (P35968 20-1356): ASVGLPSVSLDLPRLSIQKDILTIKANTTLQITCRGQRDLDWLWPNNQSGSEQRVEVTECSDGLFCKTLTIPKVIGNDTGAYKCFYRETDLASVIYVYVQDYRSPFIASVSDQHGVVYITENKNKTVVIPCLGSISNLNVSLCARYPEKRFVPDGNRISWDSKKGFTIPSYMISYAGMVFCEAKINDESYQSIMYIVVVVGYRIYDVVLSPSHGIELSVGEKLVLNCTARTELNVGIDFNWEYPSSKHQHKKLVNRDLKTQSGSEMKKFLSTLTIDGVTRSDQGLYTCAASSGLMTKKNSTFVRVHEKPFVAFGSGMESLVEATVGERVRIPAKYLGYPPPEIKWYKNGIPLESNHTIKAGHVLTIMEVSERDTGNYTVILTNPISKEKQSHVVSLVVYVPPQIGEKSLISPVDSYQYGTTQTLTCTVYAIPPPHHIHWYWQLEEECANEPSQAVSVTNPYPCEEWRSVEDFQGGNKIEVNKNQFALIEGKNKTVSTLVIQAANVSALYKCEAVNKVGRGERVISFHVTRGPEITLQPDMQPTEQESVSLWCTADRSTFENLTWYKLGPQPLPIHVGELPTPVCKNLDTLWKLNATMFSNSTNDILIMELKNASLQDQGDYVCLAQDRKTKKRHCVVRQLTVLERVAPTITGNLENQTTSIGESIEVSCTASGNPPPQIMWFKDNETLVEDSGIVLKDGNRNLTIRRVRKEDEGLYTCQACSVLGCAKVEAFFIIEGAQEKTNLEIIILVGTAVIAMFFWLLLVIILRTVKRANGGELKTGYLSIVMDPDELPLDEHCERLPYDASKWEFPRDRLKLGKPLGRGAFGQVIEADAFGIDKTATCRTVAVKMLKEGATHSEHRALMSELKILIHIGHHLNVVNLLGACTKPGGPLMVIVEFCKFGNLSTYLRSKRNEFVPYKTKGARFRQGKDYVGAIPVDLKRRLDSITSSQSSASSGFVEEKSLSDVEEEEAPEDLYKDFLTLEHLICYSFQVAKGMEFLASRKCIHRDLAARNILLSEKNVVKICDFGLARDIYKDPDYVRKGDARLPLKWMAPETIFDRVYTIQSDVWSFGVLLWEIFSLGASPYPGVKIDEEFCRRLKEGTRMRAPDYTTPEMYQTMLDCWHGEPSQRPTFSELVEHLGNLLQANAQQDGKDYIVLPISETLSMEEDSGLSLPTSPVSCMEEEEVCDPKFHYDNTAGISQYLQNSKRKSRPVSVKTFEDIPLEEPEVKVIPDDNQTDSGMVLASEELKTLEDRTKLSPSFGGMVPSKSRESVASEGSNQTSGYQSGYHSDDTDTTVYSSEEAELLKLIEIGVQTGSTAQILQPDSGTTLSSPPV
Chain of FGFR4 (P22455 22-802): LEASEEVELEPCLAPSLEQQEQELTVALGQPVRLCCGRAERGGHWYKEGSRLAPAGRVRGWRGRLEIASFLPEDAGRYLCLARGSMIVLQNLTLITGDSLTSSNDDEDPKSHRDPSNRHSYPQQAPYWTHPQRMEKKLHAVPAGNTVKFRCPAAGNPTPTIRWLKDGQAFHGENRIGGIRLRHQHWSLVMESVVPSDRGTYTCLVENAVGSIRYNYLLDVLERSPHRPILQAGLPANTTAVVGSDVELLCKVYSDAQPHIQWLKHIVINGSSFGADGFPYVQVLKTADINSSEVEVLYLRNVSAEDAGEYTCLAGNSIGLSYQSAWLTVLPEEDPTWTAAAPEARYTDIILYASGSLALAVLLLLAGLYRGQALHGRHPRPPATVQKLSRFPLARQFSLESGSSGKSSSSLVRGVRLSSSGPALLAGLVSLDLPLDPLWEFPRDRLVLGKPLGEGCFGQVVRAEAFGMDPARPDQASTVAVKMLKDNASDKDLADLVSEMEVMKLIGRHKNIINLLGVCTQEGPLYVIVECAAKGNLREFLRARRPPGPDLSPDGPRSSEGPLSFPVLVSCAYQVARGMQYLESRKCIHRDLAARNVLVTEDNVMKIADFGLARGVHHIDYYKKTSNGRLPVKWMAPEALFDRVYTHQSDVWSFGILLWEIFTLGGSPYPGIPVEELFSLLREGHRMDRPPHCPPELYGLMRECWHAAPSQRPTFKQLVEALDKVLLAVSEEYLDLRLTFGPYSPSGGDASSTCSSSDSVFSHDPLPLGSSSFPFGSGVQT
Chain of FGFR2 (P21802 22-821): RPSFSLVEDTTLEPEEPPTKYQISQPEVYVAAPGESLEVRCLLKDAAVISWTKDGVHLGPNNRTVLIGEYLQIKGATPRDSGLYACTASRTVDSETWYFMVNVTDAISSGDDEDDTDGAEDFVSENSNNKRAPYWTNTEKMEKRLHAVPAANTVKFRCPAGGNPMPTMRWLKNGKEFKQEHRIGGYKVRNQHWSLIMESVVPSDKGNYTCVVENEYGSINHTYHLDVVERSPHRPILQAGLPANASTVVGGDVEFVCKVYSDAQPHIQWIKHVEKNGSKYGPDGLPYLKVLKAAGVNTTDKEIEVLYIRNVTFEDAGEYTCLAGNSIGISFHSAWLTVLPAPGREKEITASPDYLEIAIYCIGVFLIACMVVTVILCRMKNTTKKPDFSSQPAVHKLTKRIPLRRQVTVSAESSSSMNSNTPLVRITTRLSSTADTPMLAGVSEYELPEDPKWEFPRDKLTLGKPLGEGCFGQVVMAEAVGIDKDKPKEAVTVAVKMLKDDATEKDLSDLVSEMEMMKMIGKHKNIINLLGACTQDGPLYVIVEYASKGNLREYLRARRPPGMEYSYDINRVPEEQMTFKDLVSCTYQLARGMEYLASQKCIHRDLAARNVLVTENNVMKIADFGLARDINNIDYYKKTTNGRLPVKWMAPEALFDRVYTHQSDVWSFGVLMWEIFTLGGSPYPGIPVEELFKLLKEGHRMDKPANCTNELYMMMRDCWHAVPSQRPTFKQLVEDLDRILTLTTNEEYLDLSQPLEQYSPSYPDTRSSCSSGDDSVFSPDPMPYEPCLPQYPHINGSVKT

SMILES | Kd (FGFR4) [M] | Kd (VEGFR2) [M] | Kd (FGFR2) [M] | Kd (FGFR3) [M] | Kd (FGFR1) [M]
COc1cc(OC)c2c(c1)N(c1ccc3ncc(-c4cnn(C)c4)cc3c1)CCN(C(C)C)C2 [Compound 1] | 2.45e-06 | > 3.02e-06 | 1.86e-06 | – | –
COc1cc(OC)c2c(c1)N(c1ccc3ncc(-c4cnn(C)c4)cc3c1)CCN(C)C2 [Compound 2] | > 3.02e-06 | > 3.02e-06 | > 3.02e-06 | – | –
COc1cc(OC)c2c(c1)N(c1ccc3ncc(-c4cn[nH]c4)cc3c1)CCN(C(C)C)C2 [Compound 3] | 1.38e-06 | > 3.02e-06 | 8.91e-07 | – | –
COc1cc(O)cc2c1CN(C(C)C)CCN2c1ccc2ncc(-c3cnn(C)c3)cc2c1 [Compound 4] | > 3.02e-06 | > 3.02e-06 | > 3.02e-06 | > 3.02e-06 | > 3.02e-06
COc1cc(O)c2c(c1)N(c1ccc3ncc(-c4cnn(C)c4)cc3c1)CCN(C(C)C)C2 [Compound 5] | > 3.02e-06 | > 3.02e-06 | > 3.02e-06 | – | –
CC(C)N1CCN(c2ccc3ncc(-c4cnn(C)c4)cc3c2)c2cc(O)cc(O)c2C1 [Compound 6] | > 3.02e-06 | > 3.02e-06 | > 3.02e-06 | > 3.02e-06 | > 3.02e-06
COc1cc(OC)c2c(c1)N(c1ccc3ncc(-c4cnn(C)c4)nc3n1)CCN(C(C)C)C2 [Compound 7] | > 3.02e-06 | 2.69e-07 | > 1e-06 | > 3.02e-06 | > 3.02e-06
COc1cc(OC)c2c(c1)N(c1ccc3ncc(-c4cnn(C)c4)cc3n1)CCN(C(C)C)C2 [Compound 9] | 1.91e-07 | 1.05e-06 | 9.33e-07 | – | –
COc1cc(OC)c2c(c1)N(c1ccc3ncn(-c4cnn(C)c4)c(=O)c3c1)CCN(C(C)C)C2 [Compound 11] | > 3.02e-06 | > 3.02e-06 | > 3.02e-06 | > 3.02e-06 | > 3.02e-06
COc1cc(OC)c2c(c1F)N(c1ccc3ncn(-c4cnn(C)c4)c(=O)c3c1)CCN(C(C)C)C2 [Compound 12] | > 3.02e-06 | > 3.02e-06 | 1.86e-06 | – | –
